{"source": "paper PMC11491004", "about": "“CHF6523 data suggest that the phosphoinositide 3-kinase delta isoform is not a suitable target for the management of COPD” (Respiratory Research, 2024)", "key": {"[1]": {"experiment": "CHF6523 plasma pharmacokinetics in patients with COPD", "assay_type": "in vivo, human", "conditions": "for AUC0–30 min / AUC0–12 h / Cmax: 2 mg twice daily inhaled", "protocol": "(§1) All assessment timings were based on the morning dose. Pre-dose on Days 1 and 28 of each treatment period, blood samples were taken for pharmacokinetic analyses, followed by forced oscillation (including slow vital capacity manoeuvres for inspiratory capacity [IC] and vital capacity [VC]), spirometry (forced expiratory volume in 1 s [FEV1] and forced vital capacity [FVC]), and the COPD Assessment Test (CAT). Blood samples were also taken up to 12 h post-dose on Days 1 and 28 for pharmacokinetic analyses, with blood samples for biomarker assessment pre-dose on Day 1 and 2 h post-dose on Day 28, and spirometry pre-dose on Days 20 and 24. Sputum was induced prior to each treatment period for baseline determination of biomarkers, and post-dose on Day 20 for collection of phosphatidylinositol (3,4,5)-trisphosphate (PIP3), and on Days 24 and 28 for collection of biomarkers.\nPharmacokinetic assessments were performed under fasting conditions. On days when pharmacokinetic samples were taken, study drug was administered in the morning at the clinical site after a fast of ≥ 10 h (water was allowed), with food or fluid intake not allowed until 1 h post-dose, with the exception of 100 mL of water if the patient coughed as a result of inhalation. Starting from 1 h post-dose and for the following 6 h, patients drank ≥ 240 mL of water every 2 h, with breakfast and lunch served approximately 3 and 5 h after morning study drug, and, on Day 1, dinner at least 2 h before or 1 h after evening drug administration. No intake of alcohol, grapefruit, or xanthine/caffeine containing beverages or food was allowed from 48 h prior to each intake of study medication and until the last visit procedure, with strenuous exercise prohibited for 24 h before any spirometry measurement.\nBlood samples of 2 mL were collected in K2-EDTA tubes at pre-dose and at 10, 15, 30, and 45 min and 1, 1½, 2, 3, 4, 6, 8 and 12 h post-dose on Days 1 and 28, and pre-dose on Days 20 and 24. Collected samples were centrifuged within 1 h after blood in a refrigerated centrifuge (at about +4°C) at about 2000 x g for 10 min. The plasma obtained was transferred into two polypropylene tubes (at least 500 μL into the first, and the remaining volume into the second), then stored at or below –80°C, at the clinical centre. The tubes were then transferred (frozen) to a central laboratory, and stored at –80°C until submitted for analysis with a validated liquid chromatography with tandem mass spectrometry (LC/MS-MS) method. Two validated methods were used to cover the range of possible concentrations. The first one, the so-called low-range method, measured CHF6523 over the calibration range 0.02–1.00 ng/mL. The second, the high-range method, measured CHF6523 over the calibration range 1.00–50.0 ng/mL. Overall, the lower limit of quantification in this study (LLoQ) was of 0.02 ng/mL."}, "[2]": {"system": "target biomarkers in plasma", "experiment": "Target biomarkers in plasma", "assay_type": "in vivo, human", "conditions": "p < 0.05", "protocol": "as §1, with “Sputum was induced prior to each treatment period for baseline determination of biomarkers, and post-dose on Day 20 for collection of phosphatidylinositol (3,4,5)-trisphosphate (PIP3), and on Days 24 and 28 for collection of biomarkers.” left out\nFold-change from baseline in cell counts, target biomarkers in sputum and blood, and PIP3 were log-transformed and analysed using an analysis of covariance (ANCOVA) model, with treatment, patient, and period as fixed effects, and baseline value as covariate. Changes from baseline in spirometry, forced oscillation and CAT endpoints were analysed using a similar ANCOVA model, but without log transformation. Rescue medication data were analysed using an analysis of variance model, including treatment, period and patient as fixed effects. […]"}, "[3]": {"system": "ion channels implicated in the cough reflex", "experiment": "Electrophysiology in-vitro examination", "assay_type": "biochemical"}, "[4]": {"system": "in-vivo guinea pig model", "experiment": "In-vivo guinea pig cough model"}, "[5]": {"conditions": "in vivo"}, "[6]": {"system": "eosinophilic/type-2 inflammation", "conditions": "series of preclinical studies in rat or mouse models of airway inflammation; cited from earlier work"}, "[7]": {"conditions": "Parts 1 and 2, single and multiple ascending dose; some mild inhalation-related cough; cited from earlier work"}, "[8]": {"experiment": "Safety and tolerability: adverse events", "conditions": "safety set N = 42"}, "[9]": {"biological_target": "PI3Kδ (Homo sapiens, UniProt O00329)", "sequence (O00329 whole entry)": "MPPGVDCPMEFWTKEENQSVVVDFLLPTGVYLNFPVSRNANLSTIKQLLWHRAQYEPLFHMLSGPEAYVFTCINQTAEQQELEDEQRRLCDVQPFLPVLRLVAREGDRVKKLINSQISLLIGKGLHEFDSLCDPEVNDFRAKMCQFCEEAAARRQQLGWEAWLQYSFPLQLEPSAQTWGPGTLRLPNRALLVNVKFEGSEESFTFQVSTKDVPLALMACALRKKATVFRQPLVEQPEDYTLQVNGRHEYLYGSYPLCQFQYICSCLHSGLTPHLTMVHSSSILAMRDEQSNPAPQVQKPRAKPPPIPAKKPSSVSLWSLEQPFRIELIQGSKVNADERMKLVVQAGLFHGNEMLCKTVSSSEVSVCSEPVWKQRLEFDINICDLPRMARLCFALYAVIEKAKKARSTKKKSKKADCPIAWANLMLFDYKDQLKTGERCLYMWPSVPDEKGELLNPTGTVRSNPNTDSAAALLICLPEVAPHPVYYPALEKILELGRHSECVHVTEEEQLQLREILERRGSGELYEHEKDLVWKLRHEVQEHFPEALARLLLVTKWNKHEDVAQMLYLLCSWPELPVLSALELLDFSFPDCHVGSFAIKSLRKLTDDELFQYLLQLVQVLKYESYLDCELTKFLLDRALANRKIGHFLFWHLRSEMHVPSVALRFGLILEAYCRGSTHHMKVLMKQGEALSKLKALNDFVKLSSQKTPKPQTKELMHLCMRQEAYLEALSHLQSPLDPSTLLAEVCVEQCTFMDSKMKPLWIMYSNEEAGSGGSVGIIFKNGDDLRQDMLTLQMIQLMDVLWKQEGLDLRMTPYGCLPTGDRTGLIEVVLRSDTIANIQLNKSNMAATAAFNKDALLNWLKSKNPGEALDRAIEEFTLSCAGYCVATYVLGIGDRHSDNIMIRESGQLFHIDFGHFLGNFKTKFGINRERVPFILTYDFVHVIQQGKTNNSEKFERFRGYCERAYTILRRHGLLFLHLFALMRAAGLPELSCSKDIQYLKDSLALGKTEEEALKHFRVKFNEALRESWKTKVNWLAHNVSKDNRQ", "sequence (P27986 whole entry partner)": "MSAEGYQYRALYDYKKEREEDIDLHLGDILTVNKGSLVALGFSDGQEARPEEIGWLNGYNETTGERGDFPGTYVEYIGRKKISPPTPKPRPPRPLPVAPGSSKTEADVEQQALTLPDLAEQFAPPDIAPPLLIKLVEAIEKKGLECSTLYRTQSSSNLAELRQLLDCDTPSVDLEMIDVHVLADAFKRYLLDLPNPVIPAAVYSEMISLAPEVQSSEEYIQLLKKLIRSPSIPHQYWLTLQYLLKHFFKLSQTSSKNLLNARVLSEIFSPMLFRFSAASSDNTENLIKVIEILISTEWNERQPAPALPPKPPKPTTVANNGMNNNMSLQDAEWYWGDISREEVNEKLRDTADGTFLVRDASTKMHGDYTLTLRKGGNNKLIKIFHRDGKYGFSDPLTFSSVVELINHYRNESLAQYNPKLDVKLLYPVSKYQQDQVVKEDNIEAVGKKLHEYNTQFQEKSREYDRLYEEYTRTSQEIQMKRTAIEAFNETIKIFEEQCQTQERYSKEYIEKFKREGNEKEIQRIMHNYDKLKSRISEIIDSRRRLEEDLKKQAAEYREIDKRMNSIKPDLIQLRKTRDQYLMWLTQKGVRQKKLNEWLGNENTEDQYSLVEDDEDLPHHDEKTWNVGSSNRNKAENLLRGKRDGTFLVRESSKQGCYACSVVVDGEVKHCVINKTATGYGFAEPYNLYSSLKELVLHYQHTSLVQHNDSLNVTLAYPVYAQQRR", "experiment": "Target engagement: PIP3 in induced sputum", "assay_type": "in vivo", "parameters": "from tissue; host or cells: induced sputum of COPD patients (in vivo dosing by inhalation)", "protocol": "as §1\nFold-change from baseline in cell counts, target biomarkers in sputum and blood, and PIP3 were log-transformed and analysed using an analysis of covariance (ANCOVA) model, with treatment, patient, and period as fixed effects, and baseline value as covariate. Changes from baseline in spirometry, forced oscillation and CAT endpoints were analysed using a similar ANCOVA model, but without log transformation. Rescue medication data were analysed using an analysis of variance model, including treatment, period and patient as fixed effects. Other data, including the proportion of days on which patients coughed and the cough VAS results, are presented descriptively only. Further details, including the transcriptomics, mass-spectrometry and Olink proteomics, bioinformatics and multi-omic data integration are in the supplement."}}, "data": [{"smiles": "C[C@@H](c1oc(=O)c2ccccc2c1-c1cccc(CN2CCN(C)CC2)c1)n1nc(-c2cncc(O)c2)c2c(N)ncnc21", "note": "[CHF6523]", "values": [{"measurement": "Time of peak of mean plasma concentration", "setting": "[1]; Day 1", "result": 15, "unit": "min"}, {"measurement": "median tmax", "setting": "[1]; Day 1", "result": 15, "unit": "min"}, {"measurement": "median tmax", "setting": "[1]; Day 28", "result": 11, "unit": "min"}, {"measurement": "Time of peak of mean plasma concentration", "setting": "[1]; Day 28 (first post-dose timepoint)", "result": 10, "unit": "min"}, {"measurement": "AUC0–30 min", "setting": "[1]; plasma, Day 1, mean (SD)", "result": "3.28 (1.64) ng.h/mL"}, {"measurement": "AUC0–12 h", "setting": "[1]; plasma, Day 1, mean (SD)", "result": "8.10 (4.11) ng.h/mL"}, {"measurement": "Cmax", "setting": "[1]; plasma, Day 1, mean (SD)", "result": "9.10 (4.42) ng/mL"}, {"measurement": "tmax", "setting": "[1]; plasma, Day 1, median (range)", "result": "0.25 (0.15–2.00) h"}, {"measurement": "Ctrough", "setting": "[1]; plasma, Day 20 pre-dose, mean (SD)", "result": "0.10 (0.05) ng/mL"}, {"measurement": "Ctrough", "setting": "[1]; plasma, Day 24 pre-dose, mean (SD)", "result": "0.09 (0.06) ng/mL"}, {"measurement": "AUC0–30 min", "setting": "[1]; plasma, Day 28, mean (SD)", "result": "4.21 (2.05) ng.h/mL"}, {"measurement": "AUC0–12 h", "setting": "[1]; plasma, Day 28, mean (SD)", "result": "10.50 (5.32) ng.h/mL"}, {"measurement": "Cmax", "setting": "[1]; plasma, Day 28, mean (SD)", "result": "11.70 (5.54) ng/mL"}, {"measurement": "CL/Fss (apparent total body clearance at steady state)", "setting": "[1]; plasma, Day 28, dose/AUC 0-12 h, mean (SD)", "result": "239 (119) L/h"}, {"measurement": "Cav", "setting": "[1]; plasma, Day 28, mean (SD)", "result": "0.88 (0.45) ng/mL"}, {"measurement": "Cmin", "setting": "[1]; plasma, Day 28, mean (SD)", "result": "0.09 (0.03) ng/mL"}, {"measurement": "tmax", "setting": "[1]; plasma, Day 28, median (range)", "result": "0.18 (0.15–0.27) h"}, {"measurement": "tmin", "setting": "[1]; plasma, Day 28, median (range)", "result": "11.92 (8.13–12.17) h"}, {"measurement": "Ctrough", "setting": "[1]; plasma, Day 28 pre-dose, mean (SD)", "result": "0.09 (0.06) ng/mL"}, {"measurement": "CHF6523–placebo differences in the target biomarkers in plasma", "setting": "[2]", "result": "no statistically significant"}, {"measurement": "Impact on ion channels implicated in the cough reflex", "setting": "[3]", "result": "no discernible impact"}, {"measurement": "Coughing in guinea pig, formulation with alternative salts", "setting": "[4]; formulation changed to use alternative salts", "result": "ineffective in influencing cough"}, {"measurement": "Coughing in guinea pig", "setting": "[4]; in-vivo guinea pig model, salt form used in the study", "result": "trigger coughing"}, {"measurement": "Adverse events leading to study discontinuation", "setting": "[5]", "result": "6 (14.3%) Patients (%)"}, {"measurement": "Adverse events leading to study discontinuation: Cough", "setting": "[5]", "result": "5 (11.9%) Patients (%)"}, {"measurement": "Adverse events: Abnormal product taste", "setting": "[5]", "result": "14 (33.3%) Patients (%)"}, {"measurement": "Adverse events: COPD exacerbation", "setting": "[5]", "result": "4 (9.5%) Patients (%)"}, {"measurement": "Adverse events: Chest discomfort", "setting": "[5]", "result": "9 (21.4%) Patients (%)"}, {"measurement": "Adverse events: Dyspnoea", "setting": "[5]", "result": "9 (21.4%) Patients (%)"}, {"measurement": "Adverse events: Headache", "setting": "[5]", "result": "5 (11.9%) Patients (%)"}, {"measurement": "Adverse events: Increased sputum", "setting": "[5]", "result": "5 (11.9%) Patients (%)"}, {"measurement": "CHF6523–placebo differences in the other safety evaluations", "setting": "[5]", "result": "no clinically relevant"}, {"measurement": "Serious adverse events", "setting": "[5]", "result": "2 (4.8%) Patients (%)"}, {"measurement": "Serious treatment-related adverse events", "setting": "[5]", "result": "0 Patients (%)"}, {"measurement": "Severe adverse events", "setting": "[5]", "result": "11 (26.2%) Patients (%)"}, {"measurement": "Severe adverse events: Cough", "setting": "[5]", "result": "7 (16.7%) Patients (%)"}, {"measurement": "Treatment-related adverse events", "setting": "[5]", "result": "40 (95.2%) Patients (%)"}, {"measurement": "Treatment-related adverse events: Chest discomfort", "setting": "[5]", "result": "9 (21.4%) Patients (%)"}, {"measurement": "Treatment-related adverse events: Cough", "setting": "[5]", "result": "40 (95.2%) Patients (%)"}, {"measurement": "Treatment-related adverse events: Dyspnoea", "setting": "[5]", "result": "9 (21.4%) Patients (%)"}, {"measurement": "Treatment-related adverse events: Headache", "setting": "[5]", "result": "3 (7.1%) Patients (%)"}, {"measurement": "Treatment-related adverse events: Increased sputum", "setting": "[5]", "result": "5 (11.9%) Patients (%)"}, {"measurement": "Treatment-related adverse events: Product taste abnormal", "setting": "[5]", "result": "14 (33.3%) Patients (%)"}, {"measurement": "Inhibition of eosinophilic/type-2 inflammation", "setting": "[6]", "result": "potent inhibition of eosinophilic/type-2 inflammation comparable to that of nemiralisib"}, {"measurement": "Safety profile in healthy volunteers", "setting": "[7]", "result": "acceptable safety profile"}, {"measurement": "Adverse events leading to death", "setting": "[8]", "result": "0 Patients (%)"}, {"measurement": "Adverse events: COVID-19", "setting": "[8]", "result": "5 (11.9%) Patients (%)"}, {"measurement": "Sputum PIP3 adjusted geometric mean fold change from baseline [95% CI]", "setting": "[9]; Day 20", "result": "0.703 [95% CI 0.606, 0.814]"}, {"measurement": "Decrease from baseline in sputum PIP3 levels", "setting": "[9]; Day 20, 2 mg twice daily inhaled", "result": 29.7, "unit": "%"}, {"measurement": "Sputum PIP3 adjusted ratio CHF6523 vs placebo [95% CI]", "setting": "[9]; Day 20, p = 0.001", "result": "0.705 [0.580, 0.856]"}, {"measurement": "Sputum PIP3 difference between groups (reduction vs. placebo)", "setting": "[9]; Day 20, p = 0.001", "result": 29.5, "unit": "%"}]}]}
